Laboratory results taken from the NIST ThermoML archive (doi:10.1016/j.fluid.2011.04.024).

Conditions: Liquid, Closed cell (Static) method

CCCCCCCCCCCC [dodecane]
Conditions | vapor or sublimation pressure [kPa]
432.23 K | 20.9
444.86 K | 31
455.87 K | 42.7
462.05 K | 50.8
469.67 K | 62.3
474.19 K | 70.2
479.82 K | 81
484.34 K | 90.8
488.5 K | 100.6

c1ccc2sccc2c1 [benzo[b]thiophene]
Conditions | vapor or sublimation pressure [kPa]
434.26 K | 21.3
446.75 K | 30.3
457.64 K | 41.1
465.61 K | 50.8
472.44 K | 60.5
479.15 K | 71.5
484.01 K | 80.5
489.09 K | 90.9
493.8 K | 101.5

CCCCCCCCO [octan-1-ol]
Conditions | vapor or sublimation pressure [kPa]
417.83 K | 20.5
428.6 K | 30.4
437.35 K | 41.5
443.9 K | 50.5
449.55 K | 60.7
454.52 K | 71
459.23 K | 81
463.21 K | 91.1
466.61 K | 100.3

C=CCCCCCCCCCC [1-dodecene]
Conditions | vapor or sublimation pressure [kPa]
430.38 K | 21.7
443.18 K | 33.6
453.99 K | 44
459.86 K | 52.6
464.81 K | 61.6
470.91 K | 70.7
476.45 K | 80.8
480.78 K | 90.2
484.11 K | 100.7
